Results as given in patent US20170136102A1, “PHAGE-DERIVED COMPOSITIONS FOR IMPROVED MYC[…]” (priority 2014, published 2017).
In brackets after ≈: the same amount, converted by molar mass. Read-outs that look alike come from different tables or passages of the source.

How the values were obtained:
Format in all cases: cell-based
[1] = system: M. smegmatis; experiment: Broth checkerboard MIC, synergy of LysB with anti-TB drugs; settings: for MIC: Mycolicibacterium smegmatis
[2] = system: M. bovis BCG; experiment: microbe, parasite or virus in culture; settings: for FIC index: M. bovis BCG (Dubos), drug in combination with LysB, <0.5 indicates synergy; for MIC: Mycobacterium tuberculosis variant bovis BCG, BCG
[3] = system: M. smegmatis

Row | SMILES | FIC index [1] | MIC [1] [µg/mL] | FIC index [2] | MIC [2] [µg/mL] | Log10 CFU reduction ([3]; M. smegmatis, 24 hrs, Ethambutol group) [Log10 CFU] | Log10 CFU reduction ([3]; M. smegmatis, 24 hrs, INH group) [Log10 CFU] | Log10 CFU reduction [3] [Log10 CFU]
1 | CC[C@@H](CO)NCCN[C@@H](CC)CO [Ethambutol] | 0.06 | 2 | 0.15 | 16 (≈ 78.3 µM) | <1 | – | –
2 | NNC(=O)c1ccncc1 [INH, Isoniazid] | 0.13 | 8 | 0.47 | 0.03 (≈ 0.219 µM) | – | <1 | –
3 | CO[C@H]1/C=C/O[C@@]2(C)Oc3c(C)c(O)c4c(O)c(c(/C=N/N5CCN(C)CC5)c(O)c4c3C2=O)NC(=O)/C(C)=C\C=C\[C@H](C)[C@H](O)[C@@H](C)[C@@H](O)[C@@H](C)[C@H](OC(C)=O)[C@@H]1C [Rifampicin] | 0.06 | 4 | 0.37 | 0.004 (≈ 0.00486 µM) | – | – | <1
